This note sets out measurements from ChEMBL document CHEMBL4483862, “Open-source discovery of chemical leads for next-generation chemoprotective antimalarials” (2018).

For this assay, the system named is Plasmodium berghei. Briefly: Luciferase/luciferin-expressing antifolate-resistant parasites were used to infect a culture of HepG2 cells that were pre-incubated with compounds. Infected hepatocytes emit light due to the luciferase reaction. Assay results are presented as the percent inhibition of light emission compared to control. […]. Format: functional. Particulars: sporozoite; for IC90: read-out: LUCIFERASE INFECTION ASSAY - IC90.

The mark [1] stands for this setting: read-out: LUCIFERASE INFECTION ASSAY - IC50.

Molecules are shown by their SMILES.

For `CCOc1cc(C(=O)N2CCOCC2)ccc1OCc1cccnc1`, the IC90 (in general, the concentration at which the effect reaches the 90% level) was more than 10 µM. Also, under setting [1], the IC50 (commonly the concentration at which inhibition is half-maximal) was more than 10 µM.

`CC(C)c1nccn1Cc1cccc(NC(=O)c2ccc(Br)o2)c1`: the IC90 was more than 10 µM. In addition, the IC50 under setting [1] is more than 10 µM.

On to `O=C(NC1CC1)c1ccc(CN(C2CC2)S(=O)(=O)c2ccccc2F)cc1`, for which the IC90 was determined as 1.51 µM. In addition, the IC50 under setting [1] came to 1.29 µM.

As for `Cc1ccc2[nH]c(=S)n(-c3cc(Cl)ccc3C)c(=O)c2c1`, the IC90 was more than 10.4 µM. The IC50 (PBLUC_HILL_SLOPE 1.97, PBLUC_R_SQUARED 0.142, read-out: LUCIFERASE INFECTION ASSAY - IC50) was 9.2 µM.

In the case of `COCC/N=c1\scc(-c2ccc(OC(F)F)cc2)n1/N=C/c1ccccc1Cl`, the 90% effect concentration (IC90) is more than 10 µM. For the same compound, under setting [1], the IC50 is more than 10 µM.

Regarding `c1ccc(Sc2c(-c3ccccc3)cc3ccccn23)cc1`, the IC90 is 9.91 µM. Under “FFLUC_HILL_SLOPE 15.3, FFLUC_R_SQUARED 0.586, PBLUC_HILL_SLOPE 15.5, PBLUC_R_SQUARED 0.389, read-out: LUCIFERASE INFECTION ASSAY - IC50”, the IC50 was found to be 8.6 µM.

`Cc1ccccc1C(c1ncccc1C)N(C)C(=O)C1CCN(C(=O)c2cccc(Cl)c2)CC1` (configuration not stated): the IC90 is more than 6.93 µM. Further, under setting [1], the IC50 is more than 6.93 µM.

Regarding `Cc1cc(N2CCN(CC(=O)N(C)C)CC2)nc2c(C(C)C)cccc12`, the IC90 was found to be 6.13 µM. In addition, the IC50 (PBLUC_HILL_SLOPE 64.7, PBLUC_R_SQUARED 0.2, read-out: LUCIFERASE INFECTION ASSAY - IC50) came out at 5.93 µM.

For `CCn1c(-c2ccccc2)c(C(=O)COc2ccc(Cl)c(C)c2)c2ccccc21`, the IC90 is more than 10 µM. In addition, under “HEPG2TOX_HILL_SLOPE 7.06, HEPG2TOX_R_SQUARED 0.488, PBLUC_HILL_SLOPE 0.342, PBLUC_R_SQUARED 0.631, read-out: LUCIFERASE INFECTION ASSAY - IC50”, the IC50 amounted to 0.357 µM.

`CC(c1ccc(-n2cncn2)cc1)N(C)c1ccc2nnnn2n1` (configuration not stated): the IC90 is more than 10 µM. Besides, the IC50 under setting [1] was more than 10 µM.

For `COc1ccc(-c2n[nH]c(SC(C(=O)Nc3cc(Cl)cc(Cl)c3)c3ccccc3)nc2=O)cc1` (configuration not stated), the IC90 turned out to be 3.75 µM. Further, the IC50 (FFLUC_HILL_SLOPE 1.9, FFLUC_R_SQUARED 0.863, HEPG2TOX_HILL_SLOPE 8.67, HEPG2TOX_R_SQUARED 0.533, PBLUC_HILL_SLOPE 16.2, PBLUC_R_SQUARED 0.618, read-out: LUCIFERASE INFECTION ASSAY - IC50) worked out at 3.27 µM.

For `N#C/C(=C\c1ccc(C(F)(F)F)cc1)c1c[nH]c2ccccc12`, the IC90 was more than 10.6 µM. For the same compound, the IC50 (FFLUC_HILL_SLOPE 17.8, FFLUC_R_SQUARED 0.181, PBLUC_HILL_SLOPE 2.5, PBLUC_R_SQUARED 0.114, read-out: LUCIFERASE INFECTION ASSAY - IC50) is more than 10.6 µM.

On to `CCn1c(=O)n(CCC(=O)N(CC2CCCO2)c2nc3ccccc3s2)c2ccccc21` (configuration not stated), for which the IC90 was more than 10 µM. Also, the IC50 under setting [1] is more than 10 µM.

Regarding `O=C(COC(=O)c1ccc2[nH]c3c(c2c1)CCCC3)c1ccc2c(c1)OCCO2`, the IC90 came to 9.92 µM. In addition, the IC50 (PBLUC_HILL_SLOPE 11.3, PBLUC_R_SQUARED 0.654, read-out: LUCIFERASE INFECTION ASSAY - IC50) was 8.17 µM.

As for `COc1ccc2c(c1)C(=O)/C(=C\c1ccc(OCc3nccn3C)cc1)CO2`, the IC90 was more than 10 µM. Besides, the IC50 (PBLUC_HILL_SLOPE 10.1, PBLUC_R_SQUARED 0.104, read-out: LUCIFERASE INFECTION ASSAY - IC50) stood at 8.44 µM.

On to `Cc1cc(C)c(-c2csc(NC(=O)c3nnc(O)c4ccccc34)n2)c(C)c1`, for which the concentration for an effect of 90% (IC90) was found to be 5.46 µM. In addition, the IC50 under setting [1] stood at 3.82 µM.

In the case of `COC(=O)c1c(-c2ccccc2Cl)noc1/C=C/c1c[nH]c(=O)c2c(-c3ccccc3Cl)noc12`, the IC90 is more than 6.49 µM. For the same compound, the IC50 (PBLUC_HILL_SLOPE 1.63, PBLUC_R_SQUARED 0.42, read-out: LUCIFERASE INFECTION ASSAY - IC50) is 3.61 µM.

With `CC(C)C(=O)NCc1coc(-c2cccs2)n1`, the IC90 was more than 10 µM. Moreover, the IC50 under setting [1] is more than 10 µM.

For `N#Cc1cc(Cl)ccc1N1C(=O)C=CC1=O`, the IC90 was more than 14.2 µM. Where the note is “FFLUC_HILL_SLOPE 1.82, FFLUC_R_SQUARED 0.838, PBLUC_HILL_SLOPE 13, PBLUC_R_SQUARED 0.372, read-out: LUCIFERASE INFECTION ASSAY - IC50”, the half-maximal inhibitory concentration (IC50) came to 13.6 µM.

With `Cc1ccc(C)c(NC(=O)CN(C)C(=O)CN2CCN(c3ccccc3)CC2)c1`, the IC90 is more than 10 µM. The IC50 under setting [1] is more than 10 µM.

As to `COc1cc(Cl)c(C)cc1NC(=O)Cn1c(=O)c(=O)n(Cc2ccccc2)c2ccc(Cl)cc21`, the concentration for an effect of 90% (IC90) was more than 10 µM. For the same compound, the IC50 (FFLUC_HILL_SLOPE 92.5, FFLUC_R_SQUARED 0.216, PBLUC_HILL_SLOPE 2.05, PBLUC_R_SQUARED 0.328, read-out: LUCIFERASE INFECTION ASSAY - IC50) was found to be 4.54 µM.

Turning to `C=C(C#N)CN1CCN(CC(=C)C#N)CC1`, the IC90 was 14.9 µM. The IC50 (HEPG2TOX_HILL_SLOPE 11.9, HEPG2TOX_R_SQUARED 0.949, PBLUC_HILL_SLOPE 23.6, PBLUC_R_SQUARED 0.193, read-out: LUCIFERASE INFECTION ASSAY - IC50) stood at 13.6 µM.

`COC(=O)c1c(NC(=O)C(=O)NCCN(C)C)sc2c1CCCC2`: the IC90 was more than 9.34 µM. The IC50 under setting [1] is more than 9.34 µM.

In the case of `CCN(C(=O)COC(=O)c1nc(-c2ccccc2)n2c1CCCCC2)c1ccccc1`, the IC90 is more than 10 µM. Moreover, the IC50 under setting [1] is more than 10 µM.

Take `CCCNC(=O)c1c(NC(=O)c2ccc(CC)cc2)nc2ccc(C)cn12`: the IC90 came out at 3.22 µM. For the same compound, the IC50 (HEPG2TOX_HILL_SLOPE 14.6, HEPG2TOX_R_SQUARED 0.266, PBLUC_HILL_SLOPE 22.2, PBLUC_R_SQUARED 0.534, read-out: LUCIFERASE INFECTION ASSAY - IC50) is 2.92 µM.

Consider `Cc1ccc(-c2nc3nc(N)n(C)c(=O)c3[nH]c2=O)cc1`, for which the IC90 was more than 10 µM. Moreover, the IC50 under setting [1] is more than 10 µM.

Regarding `Cc1cc(C(C)(C)C)cc(C)c1S(=O)(=O)N1CC(=O)Nc2ccccc21`, the 90% effect concentration (IC90) was more than 8.86 µM. In addition, the IC50 (PBLUC_HILL_SLOPE 6.12, PBLUC_R_SQUARED 0.785, read-out: LUCIFERASE INFECTION ASSAY - IC50) is 6.84 µM.

`Clc1ccc2c(Nc3ccc(N4CCOCC4)cc3)ccnc2c1`: the IC90 was more than 10 µM. Further, the IC50 under setting [1] was more than 10 µM.

As to `Cc1cccc(-c2nnc(Sc3nc(C)nc4sc5c(c34)CCCC5)n2CC(N)=O)c1`, the IC90 was 1.1 µM. Besides, the IC50 (HEPG2TOX_HILL_SLOPE 8.24, HEPG2TOX_R_SQUARED 0.61, PBLUC_HILL_SLOPE 14.6, PBLUC_R_SQUARED 0.735, read-out: LUCIFERASE INFECTION ASSAY - IC50) worked out at 0.944 µM.

For the compound `COC(=O)c1c(NC(=O)c2cccnc2)c2cc(NCc3ccco3)cnc2n1Cc1ccccc1`, the IC90 was more than 6.85 µM. For the same compound, under “HEPG2TOX_HILL_SLOPE 11.5, HEPG2TOX_R_SQUARED 0.854, PBLUC_HILL_SLOPE 4.03, PBLUC_R_SQUARED 0.534, read-out: LUCIFERASE INFECTION ASSAY - IC50”, the IC50 turned out to be 4.51 µM.

With `CCN(CC(=O)Nc1ccc2c(c1)OCCO2)C(=O)CCCc1nc2ccccc2s1`, the IC90 is more than 10 µM. The IC50 under setting [1] was more than 10 µM.

Consider `CC(C)(C)CC(C)(C)NC(=O)c1cccc(S(=O)(=O)N2CCc3ccccc32)c1`, for which the IC90 was more than 10 µM. Where the note is “HEPG2TOX_HILL_SLOPE 2.33, HEPG2TOX_R_SQUARED 0.906, PBLUC_HILL_SLOPE 19.2, PBLUC_R_SQUARED 0.577, read-out: LUCIFERASE INFECTION ASSAY - IC50”, the IC50 turned out to be 9.58 µM.

With `Cc1cc2oc(=O)cc(COC(=O)c3ccccc3NCCO)c2cc1C`, the IC90 was 5.07 µM. For the same compound, under “HEPG2TOX_HILL_SLOPE 8.75, HEPG2TOX_R_SQUARED 0.762, PBLUC_HILL_SLOPE 95.5, PBLUC_R_SQUARED 0.164, read-out: LUCIFERASE INFECTION ASSAY - IC50”, the IC50 is 4.95 µM.

Consider `CN1C(=O)N(CN2CCN(c3ccccn3)CC2)C(=O)C12CCCCC2`, for which the IC90 was more than 10 µM. Besides, the 50% inhibitory concentration (IC50) under setting [1] is more than 10 µM.

On to `COc1cc(-c2cn3c(-c4ccc5ncccc5c4)cnc3cn2)cc(OC)c1OC`, for which the concentration for an effect of 90% (IC90) worked out at 7.92 µM. Also, the IC50 (HEPG2TOX_HILL_SLOPE 2.69, HEPG2TOX_R_SQUARED 0.906, PBLUC_HILL_SLOPE 2.74, PBLUC_R_SQUARED 0.535, read-out: LUCIFERASE INFECTION ASSAY - IC50) was 3.55 µM.

As to `CN(Cc1ccccc1NC(=O)/C=C/c1cnn(-c2ccccc2)c1)C1CCCCC1`, the IC90 is more than 10 µM. The IC50 (PBLUC_HILL_SLOPE 13.5, PBLUC_R_SQUARED 0.731, read-out: LUCIFERASE INFECTION ASSAY - IC50) is 8.68 µM.

Take `CCOC(=O)c1c(C)oc2nc(CN(C)Cc3ccc(OCC)cc3)nc(N)c12`: the IC90 worked out at 8.75 µM. Besides, the 50% inhibitory concentration (IC50) (PBLUC_HILL_SLOPE 4.1, PBLUC_R_SQUARED 0.674, read-out: LUCIFERASE INFECTION ASSAY - IC50) was 5.12 µM.

Turning to `CNC(=O)NC(=O)CNc1ccc(C(F)(F)F)cc1`, the IC90 is more than 10 µM. Besides, under setting [1], the IC50 was more than 10 µM.

As for `NC(c1csc(Nc2ccc(C(F)(F)F)cn2)n1)C1CCCCC1` (configuration not stated), the 90% effect concentration (IC90) was more than 9.26 µM. For the same compound, for the setting “PBLUC_HILL_SLOPE 4.28, PBLUC_R_SQUARED 0.42, read-out: LUCIFERASE INFECTION ASSAY - IC50”, the IC50 was found to be 7.59 µM.

As for `CCC(C)NC(=S)N/N=C/c1cc(Cl)cc(Cl)c1O` (configuration not stated), the IC90 was more than 10.3 µM. Further, under setting [1], the IC50 is more than 10.3 µM.

As for `N#C/C(=N\Nc1ccc(Cl)cc1)C(=O)c1ccc(Cl)cc1`, the IC90 came out at 2.91 µM. Further, under “HEPG2TOX_HILL_SLOPE 1.51, HEPG2TOX_R_SQUARED 0.876, PBLUC_HILL_SLOPE 2.05, PBLUC_R_SQUARED 0.674, read-out: LUCIFERASE INFECTION ASSAY - IC50”, the IC50 was determined as 0.996 µM.
